Measurements reported in patent US8597901B2, “2,5-diketo-L-gluconic acid reductases and methods of use” (Danisco US Inc., priority 2000, dated 2013).
Like-named read-outs stand apart in the source and are kept apart here.

Key:
[1] = test system: environmental 2,5-diketo-D-gluconic acid reductase DKGRc (pI-14, SEQ ID NO: 8) variant R238Q; test: Kinetic parameters of purified R238Q mutant of DKGRc; format: biochemical, environmental DNA (uncultured, soil)
Text: Site specific mutants of DKGRc were constructed by overlap extension PCR. […] The oligonucleotides:
were complementary to the antisense and sense strands, respectively, and introduced the changes K232Q and R238Q, respectively. The bases that differ from the native sequence are underlined. Each oligonucleotide was paired with the appropriate adapter primer (i.e. primers for amplifying the gene for insertion into expression vectors) in PCR's to generate fragments of the DKGRc gene that incorporated one of the two changes. Primers were also synthesized that matched the native DNA sequence. When used with the appropriate adapter primer, these generated an unmodified fragment of the gene. […] The amplification of the full-length genes was driven by addition of both adapter primers.

[2] = test system: environmental 2,5-diketo-D-gluconic acid reductase (form not stated); details: read-out: apparent Km of stimulation by inorganic phosphate, NADH-dependent activity

## NC(=O)C1=CN([C@@H]2O[C@H](COP(=O)(O)OP(=O)(O)OC[C@H]3O[C@@H](n4cnc5c(N)ncnc54)[C@H](OP(=O)(O)O)[C@@H]3O)[C@@H](O)[C@H]2O)C=CC1 [NADPH]
[1]; R238Q versus native DKGRc
  Km for NADPH, increase over native: 18 fold
[1]; R238Q versus native DKGRc, NADPH
  kcat, increase over native: 3.5 fold
[1]; read-out: Km, nadph, R238Q, NADPH as cosubstrate
  Km: 55 µM

## NC(=O)C1=CN([C@@H]2O[C@H](COP(=O)(O)OP(=O)(O)OC[C@H]3O[C@@H](n4cnc5c(N)ncnc54)[C@H](O)[C@@H]3O)[C@@H](O)[C@H]2O)C=CC1 [NADH]
[1]; R238Q versus native DKGRc
  Km for NADH, effect of mutation: not affected by the mutation
  catalytic efficiency with NADH as cosubstrate, increase over native: 7 fold
[1]; R238Q, NADH as cosubstrate
  kcat: 12 S^−1
[1]; R238Q, NADH as cosubstrate, read-out: Km, nadh
  Km: 1900 µM

## O=C(O)C(=O)[C@@H](O)[C@H](O)C(=O)CO [DKG, 2,5-diketo-D-gluconic acid]
[1]; R238Q versus native DKGRc
  Km for 2,5-diketo-D-gluconic acid, increase over native: 7.7 fold
[1]; R238Q, read-out: Km for 2,5-diketo-D-gluconic acid
  Km: 440 µM

## O=P(O)(O)O [Pi]
[2]
  Km: 1300 µM
